Measured values as given in US20070225363A1, “Methods and Agents for Inhibiting Dynamin-Dependent Endocytosis” (the University of Newcastle Research Associates Ltd., priority 2003, published 2007).
Entries after “also recorded” stand apart in the source; their conditions may differ. Values belong to the molecule of their own block, whether it stands above or below them.

Legend:
[1] = biological target: T1, dynamin I (Ovis aries, UniProt A0ACI6NZN1); assay: Dynamin I GTPase assay ([γ-32P]GTP hydrolysis); format: biochemical, sheep
T1 sequence (A0ACI6NZN1 entry or part of it): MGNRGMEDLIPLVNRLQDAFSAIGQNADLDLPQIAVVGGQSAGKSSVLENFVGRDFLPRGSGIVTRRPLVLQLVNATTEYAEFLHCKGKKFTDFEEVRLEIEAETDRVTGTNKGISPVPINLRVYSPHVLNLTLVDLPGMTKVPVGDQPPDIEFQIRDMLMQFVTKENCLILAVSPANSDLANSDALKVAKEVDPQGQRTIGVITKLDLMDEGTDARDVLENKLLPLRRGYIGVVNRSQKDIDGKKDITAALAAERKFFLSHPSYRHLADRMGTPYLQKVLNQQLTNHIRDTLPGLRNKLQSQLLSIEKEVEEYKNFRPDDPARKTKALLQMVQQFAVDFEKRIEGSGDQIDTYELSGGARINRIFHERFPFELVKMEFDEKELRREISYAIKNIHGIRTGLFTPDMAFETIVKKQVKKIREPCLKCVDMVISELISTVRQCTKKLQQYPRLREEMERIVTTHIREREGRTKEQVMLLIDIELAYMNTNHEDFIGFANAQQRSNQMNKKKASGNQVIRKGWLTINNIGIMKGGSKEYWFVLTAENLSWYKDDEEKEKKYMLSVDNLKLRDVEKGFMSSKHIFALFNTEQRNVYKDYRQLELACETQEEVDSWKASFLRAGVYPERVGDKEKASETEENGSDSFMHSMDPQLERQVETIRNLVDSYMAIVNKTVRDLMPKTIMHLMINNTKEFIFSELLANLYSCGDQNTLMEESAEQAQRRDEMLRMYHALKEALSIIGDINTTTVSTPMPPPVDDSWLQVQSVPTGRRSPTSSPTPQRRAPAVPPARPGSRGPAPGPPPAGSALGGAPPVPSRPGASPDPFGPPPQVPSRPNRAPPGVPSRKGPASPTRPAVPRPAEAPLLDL
Method: (§1) The plasmid for GST-Amph2-SH3 (muscle Amph2) (Butler et al., 1997) was provided by Pieto DeCamilli, Yale, Connecticut, USA, in pGEX2T vectors. The plasmid was grown in E. coli and the GST-Amph2-SH3 fusion protein was purified on glutathione (GSH)-Sepharose by elution with 10 mM reduced GSH in 20 mM Tris-HCl, pH 7.5, dialysed against the same buffer without GSH and stored at 4° C. Dynamin was purified from sheep brain by extraction from the peripheral membrane fraction of whole brain (Robinson et al., 1993) and affinity purification on GST-Amph2-SH3-sepharose as previously described (Marks and McMahon., 1998), yielding 8 mg protein from 250 g sheep brain. Recombinant dynamin II was expressed in insect cells and was a gift from Dr Sandra Schmid (Scripps, San Diego, Calif.). Recombinant dynamin I lacking the PH domain (dynamin PH, provided by Robin Scaife) was expressed in insect cells using baculoviral infection (Salim et al., 1996).
(§2) Dynamin GTPase activity was determined by hydrolysis of [ ? -^32P]GTP by a method modified from that described previously (Robinson et al., 1993). Briefly, purified dynamin I or dynamin II (0.2 μg/tube) was incubated in GTPase buffer (10 mM Tris, 10 mM NaCl, 2 mM Mg^2+, 0.05% Tween 80, pH 7.4, 1 μg/ml leupeptin and 0.1 mM PMSF) and a GTP cocktail containing 0.3 mM GTP and 1.3 μCi [ ? -^32P]-GTP in the presence or absence of varying concentrations of inhibitors or DMSO vehicle for 10 min at 30 C. The final assay volume was 40 μl. Dynamin activity was measured as either basal or phospholipid-stimulated with the addition of 5 μg/ml L-phosphatidylserine. The reaction was terminated with 100 μl of GTPase stop buffer (2% formic add, 8% acetic acid, pH 1.9), followed by 600 μl of acid-washed charcoal solution (7% charcoal in acidic solution (w/v)) and 100 μl BSA (5 mg/ml). After centrifuging for 5 min (13,000 rpm at room temperature), 200 μl of each supernatant was counted in a -counter for the release of ^32Pi from [ ? -^32P]-GTP.

[2] = biological target: T1, dynamin I; assay: [α-32P]-GTP binding assay, dynamin I; parameters: species or system sheep
Method: (§3) The [α-^32P]-GTP-binding assay was performed in the wells of a 96-well microtitre plate. Dynamin (0.2 μg/well) was added to GTPase buffer and incubated for 10 min at 4 C in the dark. [α-^32P]-GTP (2 μCi/tube) was then added to the reaction and incubated for a further 10 min at 4 C. in the dark. The microtitre plate was then irradiated with a short wavelength ultraviolet lamp at […] for 30 min at a distance of 8 cm. The specificity of photolabelling was determined by comparing the labelling in the presence and absence of 1 mM cold GTP. Samples were then applied to nitrocellulose membranes by aspiration through the wells of a 24 well slot blotter. The nitrocellulose was washed 3 times with PBS and dried. Bound nucleotide was detected by a phosphorimager (Molecular Dynamics).

[3] = biological target: T2, Rab3A (Homo sapiens, UniProt P20336); assay: [α-32P]-GTP binding to small G protein Rab3A; conditions: data not shown
T2 sequence (P20336 1-220): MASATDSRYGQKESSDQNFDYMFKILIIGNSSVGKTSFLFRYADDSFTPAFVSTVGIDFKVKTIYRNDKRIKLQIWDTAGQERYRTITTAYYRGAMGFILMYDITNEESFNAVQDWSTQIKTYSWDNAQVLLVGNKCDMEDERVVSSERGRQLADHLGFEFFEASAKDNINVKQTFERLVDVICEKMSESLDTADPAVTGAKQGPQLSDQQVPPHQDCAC
Method: (§4) Competition of these drugs with GTP for the active site of 4 small G proteins (Rab3A, Ras, Arf2, RalA) was also tested.

[4] = test system: Ras; assay: [α-32P]-GTP binding to small G protein Ras; conditions: data not shown
Method: as §4

[5] = test system: Arf2; assay: [α-32P]-GTP binding to small G protein Arf2; conditions: data not shown
Method: as §4

[6] = biological target: T3, RalA (Homo sapiens, UniProt P11233); assay: [α-32P]-GTP binding to small G protein RalA; conditions: data not shown
T3 sequence (P11233 1-206): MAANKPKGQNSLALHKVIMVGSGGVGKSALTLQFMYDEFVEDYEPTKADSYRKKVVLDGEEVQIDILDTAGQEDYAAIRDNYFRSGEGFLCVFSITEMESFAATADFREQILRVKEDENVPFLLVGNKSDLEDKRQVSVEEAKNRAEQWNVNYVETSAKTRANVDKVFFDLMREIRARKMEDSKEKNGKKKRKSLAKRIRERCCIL
Method: as §4

[7] = test system: isolated nerve terminals (synaptosomes); assay: Glutamate release assay (exocytosis) in synaptosomes; format: cell-based, rat; conditions: 30 mM KCl
Method: The glutamate release assay was performed using enzyme-linked fluorescent detection of released glutamate (Cousin and Robinson., 2000a, b). Briefly, synaptosomes (0.6 mg in 2 ml) were resuspended in either plus (1.2 mM CaCl2) or minus (1 mM EGTA) Ca^2+ Krebs-like solution (118.5 mM NaCl, 4.7 mM KCl, 1.18 mM MgCl2, 0.1 mM Na2HPO4, 20 mM Hepes, 10 mM glucose, pH 7.4) at 37° C. Experiments were started after addition of 1 mM NADP^+. After 1 minute 50 U of glutamate dehydrogenase was added and the synaptosome suspension was stimulated after 4 minutes with 30 mM KCl. Increases in fluorescence due to production of NADPH were monitored in a Perkin-Elmer LS-50B spectrofluorimeter at 340 nm excitation and 460 nm emission. Experiments were standardised by the addition of 4 nmol of glutamate. Data is presented as Ca^2+-dependent glutamate release, calculated as the difference between release in plus and minus Ca^2+ solution for identical stimulation conditions.

[8] = test system: isolated nerve terminals (synaptosomes); assay: Synaptic vesicle endocytosis, FM2-10 uptake in synaptosomes; format: cell-based, rat; conditions: 100 μM
Method: Isolated nerve terminals (synaptosomes) were prepared from rat cerebral cortex by centrifugation on discontinuous percoll gradients (Dunkley et al., 1986). Fractions 3 and 4 were pooled and used in all experiments. Endocytosis was measured using uptake of the fluorescent dye FM2-10 as previously described (Cousin and Robinson 2000a). Synaptosomes (0.6 mg in 2 ml) were incubated for 5 min at 37° C. in plus or minus Ca^2+ Krebs-like solution. FM2-10 ([…]) was added 1 min before stimulation with 30 mM KCl (S1). As FM2-10 is taken up by vesicles via endocytosis at the S1 phase of stimulation, synaptosomes were incubated with antagonists during this phase. […] After 2 min of stimulation synaptosomes were washed twice in plus Ca^2+ solution containing 1 mg/ml bovine serum albumin. The washing steps remove non-internalised FM2-10 and the tyrphostins. Washed synaptosomes were resuspended in plus Ca^2+ solution at 37° C., transferred to a fluorimeter cuvette and stimulated with a standard addition of 30 mM KCl (S2). The standard S2 stimulation releases all accumulated FM2-10 and allows endocytosis to be measured as the decrease in FM2-10 fluorescence due to dye release into solution (excitation 488 nm, emission 540 nm).
Endocytosis was calculated as the decrease in absolute fluorescence stimulated by 30 mM KCl at S2. […] Retrieval efficiency is a more accurate measure of endocytosis since it takes into account the amount of prior exocytosis. Retrieval efficiency was calculated as endocytosis/exocytosis, where endocytosis is defined as above and exocytosis as Ca^2+-dependent glutamate release after 2 min of stimulation. The retrieval efficiency value was normalised to a ratio of 1.0 for 30 mM KCl.

[9] = test system: Swiss 3T3 cells; assay: Texas Red-transferrin uptake in Swiss 3T3 cells; format: cell-based; conditions: drug added 15 or 60 minutes before Tf-TxR
Method: (§5) Transferrin (Tf) uptake was analysed in Swiss 3T3 and HER14 cells based on methods previously described (van der Bliek et al., 1993). Briefly, cells were plated to 60% confluency in DMEM medium plus 10% foetal calf serum after which the cells were incubated overnight (8-10 hours) in DMEM minus foetal calf serum. Texas red-transferrin (Tf-TxR, Molecular Probes, Oregon) was added to a final concentration of 5 μg/ml and the cells incubated at 37° C. for 10 minutes. Cell surface staining was removed by incubating the cells in an ice cold acid wash solution (0.2 M acetic acid +0.5 M NaCl, pH 2.8) for 15 minutes. Cells were immediately fixed with 4% paraformaldehyde for 10 minutes then washed 3 times with PBS. Nuclei were stained using DAPI (Molecular Probes, Oregon). Slides were mounted using DABCO and the fluorescence was monitored using a Leica DMLB bright field microscope and SPOT digital camera.

[10] = test system: HER14 cells; assay: Texas Red-transferrin uptake in HER14 cells; format: cell-based; conditions: drug added 15 or 60 minutes before Tf-TxR
Method: as §5

[11] = test system: dynamin II; assay: [α-32P]-GTP binding assay, dynamin II
Method: as §3

[12] = test system: ΔPH domain dynamin I; assay: GTPase assay with recombinant dynamin I lacking the PH domain; format: biochemical
Method: as §1
as §2, with “-^32P]-GTP. […]” for “-^32P]-GTP.”

Structure (SMILES): COc1cc(C=C(C#N)C(=O)NCCCNC(=O)C(C#N)=Cc2cc(O)c(O)c(OC)c2)cc(O)c1O [Compound 24, 2-Cyano-N-{3-[2-cyano-3-(3,4-dihydroxy-methoxyphenyl)-acryloylamino]-propyl}-3-(3,4-dihydroxy-5-methoxyphenyl)-acrylamide]
- IC50 ([1]; library 1 (dimeric) compounds): 5 ± 1 µM

- effect on dynamin GTPase activity ([1]; alone, data not shown): without effect
Structure (SMILES): O[C@H](CS)[C@H](O)CS (racemic) [Dithiothreitol, dithiothreitol]

Structure (SMILES): N#C/C(=C\c1ccc(O)c(O)c1)C(N)=S [tyrphostin A47]
- inhibitory potency on dynamin ([1]; freshly prepared solutions): no inhibitory potency
- inhibitory potency on dynamin ([1]; stocks kept at room temperature for 24 hrs): weak potency
- [α-32P]-GTP binding to dynamin I in the presence of drug [2]: not seen to decrease; also recorded: not affected
- effect on [α-32P]-GTP binding to Rab3A [3]: neither drug affected
- effect on [α-32P]-GTP binding to Ras [4]: neither drug affected
- effect on [α-32P]-GTP binding to Arf2 [5]: neither drug affected
- effect on [α-32P]-GTP binding to RalA [6]: neither drug affected
- exocytosis (Ca2+-dependent glutamate release) [7]: no effect
- inhibition of synaptic vesicle endocytosis (SVE) ([8]; synaptosomes): did not
- retrieval efficiency (endocytosis/exocytosis) ([8]; 1 indicates no drug effect): 0.95 (±0.05)
- internalisation of texas-red labelled transferrin into Swiss 3T3 cells [9]: not as dramatically as bis-tyrphostin
- internalisation of texas-red labelled transferrin into HER14 cells [10]: not as dramatically as bis-tyrphostin

Structure (SMILES): N#C/C(=C\c1ccc(O)c(O)c1)C(=O)N1CCN(C(=O)/C(C#N)=C/c2ccc(O)c(O)c2)CC1 [Compound 71]
- dynamin inhibition ([1]; screen at ≦100 μM): no dynamin inhibition

Structure (SMILES): CN(C)CCCn1cc(C2=C(c3c[nH]c4ccccc34)C(=O)NC2=O)c2ccccc21 [BIM I]
- [α-32P]-GTP binding to dynamin I in the presence of drug [2]: compete with GTP
- [α-32P]-GTP binding to dynamin II in the presence of drug [11]: compete with GTP
- ability to inhibit GTPase activity of dynamin I lacking the PH domain [12]: lost its ability to inhibit
